From PMC8582576, “New Therapeutic Strategy for Overcoming Multidrug Resistance in Cancer Cells with Pyrazolo[3,4-d]pyrimidine Tyrosine Kinase Inhibitors” (Cancers, 2021)
Where “and” joins values, the source holds several entries; their conditions need not be identical. Equal entries are not always repeated. Entries after “also recorded” stand apart in the source; their conditions may differ.

Key:
DLD1-TxR [1] = assay: MTT assay, reversal of PTX resistance in DLD1-TxR cells; assay type: cell-based, human; settings: for Relative Reversal of PTX resistance: IC50 PTX alone / IC50 in combination
Description: (§1) The metabolic activity of viable cells was measured by MTT assay. Cells grown in 25 cm^2 tissue flasks were trypsinized, seeded into flat-bottomed 96-well tissue culture plates, and incubated overnight. Subsequently, the cells were treated with increasing concentrations of Si306, pro-Si306, and dasatinib (1–25 μM), as well as with Si221 and pro-Si221 (2.5–50 μM) for 72 h. In addition, the combined effects of Si306, pro-Si306, and pro-Si221with DOX as well as with PTX were studied in NCI-H460/R and DLD1-TxR cells, respectively. In simultaneous treatments that lasted 72 h in NCI-H460/R and DLD1-TxR cells, two concentrations of Si306, pro-Si306, and pro-Si221 (0.2 μM and 0.5 μM) were combined with increasing concentrations of DOX and PTX (0.1–2 μM). After treatment, MTT was added to each well at a final concentration of 0.2 mg/mL for 3 h. Then, formazan produced in cells with intact/viable mitochondria was dissolved in 200 μL of DMSO, and the absorbance was measured at 570 nm on a Multiskan Sky Microplate Spectrophotometer (ThermoFisher Scientific, United States). The IC50 value is defined as the concentration of a drug that decreases cell viability by 50% and was calculated by nonlinear regression analysis using GraphPad Prism 6.0 for Windows (La Jolla, CA, USA). Relative reversal was calculated as a relation between the IC50 values of DOX and PTX alone obtained in NCI-H460/R and DLD1-TxR cells, respectively and the IC50 values of DOX and PTX in combination with Pro-Si306 and Pro-Si221.

P-gp [2] = target: T1, P-gp (Homo sapiens, UniProt P08183); assay: Rho 123 accumulation assay (P-gp activity) in NCI-H460/R cells; settings: for P-gp inhibition by Rho 123 intracellular accumulation / IC50 / kinetics of P-gp inhibition (Rho123 accumulation): NCI-H460/R; for P-gp inhibition by Rho 123 intracellular accumulation: 10 µM, 30-min treatment, compared with Dex-VER; for IC50: IC50 for P-gp inhibition, Rho123 accumulation, 30 min; for kinetics of P-gp inhibition (Rho123 accumulation): 24-, 48-, 96-, 168-h treatments, 10 µM pro-Si306, pro-Si221, 5 and 10 nM TQ
Description: (§3) The accumulation of fluorescent P-gp substrate Rho 123 was analyzed by flow cytometry. The intensity of fluorescence was proportional to Rho 123 accumulation in the cell. […] NCI-H460 and DLD1 cells were used as a positive control for Rho 123 accumulation. All cell lines were seeded in adherent 6-well plates and grown overnight. In simultaneous treatment that lasted 30 min, 5 μM Rho 123 was applied along with 10 μM of Si306, pro-Si306, Si221, pro-Si221, dasatinib, and Dex-VER. […] Samples were incubated for 30 min at 37 °C in 5% CO2. […] At the end of the accumulation period, the cells were trypsinized, pelleted by centrifugation, washed with PBS, and placed in ice-cold PBS. The samples were kept on ice in the dark until analysis on a CyFlow Space Partec flow cytometer (Sysmex Partec GmbH, Görlitz, Germany). The fluorescence of Rho 123 was detected on fluorescence channel 1 (FL1-H) at 530 nm. Three independent experiments were performed for each experimental setting. A minimum of 10,000 events was assayed for each sample, and the obtained results were analyzed using Summit Dako Software (ver. 4.3, Fort Collins, CO, USA).

[3] = test system: NCI-H460, NCI-H460/R, DLD1, DLD1-TxR; assay: MTT cell viability assay, two sensitive/MDR cancer cell line pairs; assay type: cell-based; settings: Homo sapiens, summary over the four cell lines, 72 h
Description: as §1

NCI-H460/R [4] = assay: MTT cell viability assay, NCI-H460/R; assay type: cell-based, human; settings: for IC50: Homo sapiens, NCI-H460/R (MDR), MTT, 72 h, read-out: Decrease in cell viability, IC50; for fold lower IC50 in MDR NCI-H460/R than in sensitive NCI-H460 cells: NCI-H460/R vs NCI-H460, MTT
Description: as §1

NCI-H460 = assay: MTT cell viability assay, NCI-H460; assay type: cell-based; settings: Homo sapiens, 72 h, read-out: Decrease in cell viability, IC50
Description: as §1

DLD1-TxR [5] = assay: MTT cell viability assay, DLD1-TxR; assay type: cell-based; settings: Homo sapiens, DLD1-TxR (MDR), 72 h, read-out: Decrease in cell viability, IC50
Description: as §1

DLD1 = assay: MTT cell viability assay, DLD1; assay type: cell-based; settings: Homo sapiens, DLD-1, 72 h, read-out: Decrease in cell viability, IC50
Description: as §1

P-gp expression [6] = assay: Flow cytometric analysis of P-gp expression in NCI-H460/R cells; assay type: cell-based, human; settings: 48-h treatment, Si306, pro-Si306 5 and 10 µM, pro-Si221 1 and 2 µM, TQ 5 and 10 nM
Description: (§2) The P-gp expression level in NCI-H460/R and DLD1-TxR was measured by flow cytometry. […] After 48 h, cells were collected by trypsinization, washed in PBS, and then directly immuno stained by FITC-conjugated anti-P-gp antibody according to the manufacturer’s protocol.

P-gp expression [7] = assay: Flow cytometric analysis of P-gp expression in DLD1-TxR cells; assay type: cell-based, human; settings: 48-h treatment, Si306, pro-Si306 5 and 10 µM, pro-Si221 1 and 2 µM, TQ 5 and 10 nM
Description: as §2

P-gp [8] = target: T1, P-gp; assay: Rho 123 accumulation assay (P-gp activity) in DLD1-TxR cells; settings: for P-gp inhibition by Rho 123 intracellular accumulation / kinetics of P-gp inhibition (Rho123 accumulation) / IC50: DLD1-TxR; for P-gp inhibition by Rho 123 intracellular accumulation: 10 µM, 30-min treatment, compared with Dex-VER; for kinetics of P-gp inhibition (Rho123 accumulation): 24-, 48-, 96-, 168-h treatments, 10 µM pro-Si306, 1 and 2 µM pro-Si221, 5 and 10 nM TQ; for IC50: IC50 for P-gp inhibition, Rho123 accumulation, 30 min
Description: as §3

NCI-H460/R [9] = assay: MTT assay, reversal of DOX resistance in NCI-H460/R cells; assay type: cell-based, human; settings: for Relative Reversal of DOX resistance: IC50 DOX alone / IC50 in combination
Description: as §1

P-gp [10] = target: T1, P-gp; assay: P-gp ATPase activity assay (Pgp-Glo); assay type: biochemical; design: purchased Promega, Madison, WI, USA; settings: 5 µM and 20 µM; verapamil positive control
Description: P-gp function depends on ATP hydrolysis energy, and compounds that interact with P-gp can stimulate or inhibit its ATPase activity. P-gp ATPase activity is usually stimulated by its substrates. The Pgp-GloTM assay system detects a compound’s effect on recombinant human P-gp in a cell membrane fraction. P-gp ATPase activity was measured using the luminescent Pgp-Glo^TM assay kit according to manufacturer’s instructions. Briefly, ATP was first incubated with P-gp; then, the P-gp ATPase reaction was stopped, and the remaining un-metabolized ATP was detected as a luciferase-generated luminescent signal. P-gp-dependent decreases in luminescence reflect ATP consumption by P-gp; thus, the greater the decrease in signal, the higher the P-gp activity. […] Na3VO4 is a noncompetitive inhibitor of P-gp ATPase activity. The difference in the luminescent signal, expressed as relative light units (RLU), between Na3VO4-treated samples and untreated samples represents the basal P-gp ATPase activity (ΔRLU basal). The difference in the luminescent signal between Na3VO4-treated samples and samples treated with the tested compounds represents P-gp ATPase activity in the presence of the tested compounds. […] The luminescence of samples treated with 5 μM and 20 μM of Si306, pro-Si306, and pro-Si221 was measured using a luminometer microplate reader (CHAMELEONTMV, Hidex, Turku, Finland).

T1 sequence (P08183 whole entry): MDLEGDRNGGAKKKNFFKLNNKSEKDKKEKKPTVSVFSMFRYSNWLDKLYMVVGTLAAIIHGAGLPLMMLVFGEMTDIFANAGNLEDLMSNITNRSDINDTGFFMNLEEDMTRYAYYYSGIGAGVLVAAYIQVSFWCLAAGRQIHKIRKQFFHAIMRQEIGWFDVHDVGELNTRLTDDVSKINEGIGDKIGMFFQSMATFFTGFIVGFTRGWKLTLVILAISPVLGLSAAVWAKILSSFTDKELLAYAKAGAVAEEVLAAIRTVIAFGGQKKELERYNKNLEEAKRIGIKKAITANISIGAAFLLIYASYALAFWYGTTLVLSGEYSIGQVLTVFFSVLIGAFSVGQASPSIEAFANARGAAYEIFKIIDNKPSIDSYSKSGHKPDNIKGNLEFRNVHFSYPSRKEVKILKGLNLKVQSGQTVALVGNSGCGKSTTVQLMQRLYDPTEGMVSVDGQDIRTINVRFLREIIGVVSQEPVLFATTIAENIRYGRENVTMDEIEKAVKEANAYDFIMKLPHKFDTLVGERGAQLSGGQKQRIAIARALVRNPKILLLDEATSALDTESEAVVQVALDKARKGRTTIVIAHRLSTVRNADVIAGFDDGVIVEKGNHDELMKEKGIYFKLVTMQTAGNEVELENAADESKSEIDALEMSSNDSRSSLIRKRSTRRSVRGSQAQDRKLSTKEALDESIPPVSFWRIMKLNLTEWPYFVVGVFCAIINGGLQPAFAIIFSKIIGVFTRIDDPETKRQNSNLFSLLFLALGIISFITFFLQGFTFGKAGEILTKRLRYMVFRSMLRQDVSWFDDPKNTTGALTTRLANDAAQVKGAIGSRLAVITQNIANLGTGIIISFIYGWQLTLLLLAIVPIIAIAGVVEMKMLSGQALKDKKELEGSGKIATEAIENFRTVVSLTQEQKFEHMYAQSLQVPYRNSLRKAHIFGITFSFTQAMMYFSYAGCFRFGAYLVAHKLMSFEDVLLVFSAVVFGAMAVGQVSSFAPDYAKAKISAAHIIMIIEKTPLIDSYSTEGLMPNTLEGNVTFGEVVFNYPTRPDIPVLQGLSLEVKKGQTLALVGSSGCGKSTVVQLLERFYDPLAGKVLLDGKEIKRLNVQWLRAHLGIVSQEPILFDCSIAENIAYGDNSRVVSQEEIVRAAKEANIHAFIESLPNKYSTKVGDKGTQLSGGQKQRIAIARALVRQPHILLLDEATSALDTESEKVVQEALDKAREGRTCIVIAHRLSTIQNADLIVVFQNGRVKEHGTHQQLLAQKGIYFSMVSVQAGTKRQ

| Compound | P-gp inhibition by Rho 123 intracellular accumulation (P-gp [2]) | IC50 [3] | IC50 (NCI-H460/R [4]) | IC50 (NCI-H460) | IC50 (DLD1-TxR [5]) | IC50 (DLD1) | IC50 (P-gp [2]) | kinetics of P-gp inhibition (Rho123 accumulation) (P-gp [2]) | effect on P-gp expression (protein level) (P-gp expression [6]) | effect on P-gp expression (protein level) (P-gp expression [7]) | P-gp inhibition by Rho 123 intracellular accumulation (P-gp [8]) | kinetics of P-gp inhibition (Rho123 accumulation) (P-gp [8]) | IC50 (P-gp [8]) | effect on ATPase activity of P-gp (P-gp [10]) | also measured |
| --- | --- | --- | --- | --- | --- | --- | --- | --- | --- | --- | --- | --- | --- | --- | --- |
| CC(=O)O[C@H]1C(=O)[C@@]2(C)[C@H]([C@H](OC(=O)c3ccccc3)[C@]3(O)C[C@H](OC(=O)[C@H](O)[C@@H](NC(=O)c4ccccc4)c4ccccc4)C(C)=C1C3(C)C)[C@]1(OC(C)=O)CO[C@@H]1C[C@@H]2O [PTX, paclitaxel, reference compound] | – | – | – | – | – | – | – | – | – | – | – | – | – | – | IC50 (DLD1-TxR [1]; Homo sapiens, MTT, 72 h, read-out: IC50 of PTX alone): 1.05 ± 0.115 µM |
| Cc1nc(Nc2ncc(C(=O)Nc3c(C)cccc3Cl)s2)cc(N2CCN(CCO)CC2)n1 [Dasatinib, reference compound] | did not show potential to inhibit P-gp | < 10 µM | 6.88 ± 0.605 µM | 3.93 ± 0.295 µM | 2.9 ± 0.223 µM | 3.24 ± 0.411 µM | – | – | – | – | – | – | – | – | – |
| CN1CCN(CCOC(=O)N(c2cccc(Br)c2)c2nc(SCCN3CCOCC3)nc3c2cnn3CC(Cl)c2ccccc2)CC1 (stereo not drawn) [Pro-Si306] | considerably more potent than that observed with Dex-VER | < 10 µM | 0.897 ± 0.102 µM | 2.41 ± 0.376 µM | 1.87 ± 0.128 µM | 2.45 ± 0.346 µM | 6200 nM and 6170 nM | reached stability after 96 h | less pronounced effect on the increase in P-gp expression | tendency to decrease the P-gp expression | considerably more potent than that observed with Dex-VER | reached stability after 96 h | 3000 nM and 2950 nM | potential to inhibit the ATPase activity of P-gp | Relative Reversal of PTX resistance (DLD1-TxR [1]; SFK inhibitor 0.2 µM): 1.5; Relative Reversal of PTX resistance (DLD1-TxR [1]; SFK inhibitor 0.5 µM): 2.5; Relative Reversal of DOX resistance (NCI-H460/R [9]; SFK inhibitor 0.2 µM): 3.2; Relative Reversal of DOX resistance (NCI-H460/R [9]; SFK inhibitor 0.5 µM): 10.2; fold lower IC50 in MDR NCI-H460/R than in sensitive NCI-H460 cells (NCI-H460/R [4]): more than 2 fold |
| Clc1ccccc1CNc1ncnc2c1cnn2CC(Cl)c1ccc(Br)cc1 (stereo not drawn) [Si221] | did not modulate the activity of P-gp | – | 18.1 ± 2.08 µM | 14.6 ± 1.48 µM | 11.6 ± 1.29 µM | 34.1 ± 2.32 µM | – | – | – | – | did not modulate the activity of P-gp | – | – | – | – |
| CN1CCN(CCOC(=O)N(Cc2ccccc2Cl)c2ncnc3c2cnn3CC(Cl)c2ccc(Br)cc2)CC1 (stereo not drawn) [Pro-Si221] | considerably more potent than that observed with Dex-VER | < 10 µM | 5.14 ± 0.573 µM | 4.27 ± 0.509 µM | 5.7 ± 0.543 µM | 9.8 ± 1.15 µM | 612 ± 72 nM | continued to decrease until 48 h when it reached stability and was sustained even after 168 h | less pronounced effect on the increase in P-gp expression | tendency to decrease the P-gp expression | considerably more potent than that observed with Dex-VER | decline until 96 h when it reached stable P-gp inhibition | 669 ± 61 nM | potential to inhibit the ATPase activity of P-gp; also recorded: highest inhibitory effect on ATPase activity | inhibition at 30 min, 1 µM (P-gp [2]; human, NCI-H460/R cells, probe Rho 123 (5 µM)): 100%; Relative Reversal of PTX resistance (DLD1-TxR [1]; SFK inhibitor 0.2 µM): 2.0; Relative Reversal of PTX resistance (DLD1-TxR [1]; SFK inhibitor 0.5 µM): 3.2; inhibition at 30 min, 1 µM (P-gp [8]; human, DLD1-TxR cells, probe Rho 123 (5 µM)): 100%; Relative Reversal of DOX resistance (NCI-H460/R [9]; SFK inhibitor 0.2 µM): 1.8; Relative Reversal of DOX resistance (NCI-H460/R [9]; SFK inhibitor 0.5 µM): 7.1 |
| ClC(Cn1ncc2c(Nc3cccc(Br)c3)nc(SCCN3CCOCC3)nc21)c1ccccc1 (stereo not drawn) [Si306] | considerably more potent than that observed with Dex-VER | < 10 µM | 1.89 ± 0.184 µM | 6.24 ± 0.685 µM | 2.56 ± 0.183 µM | 3.93 ± 0.679 µM | 13300 nM | – | significantly increased P-gp expression | tendency to decrease the P-gp expression | considerably more potent than that observed with Dex-VER | – | 6400 nM and 6440 nM | potential to inhibit the ATPase activity of P-gp | fold lower IC50 in MDR NCI-H460/R than in sensitive NCI-H460 cells (NCI-H460/R [4]): more than 2 fold |
| COc1cc2c(cc1OC)CN(CCc1ccc(NC(=O)c3cc(OC)c(OC)cc3NC(=O)c3cnc4ccccc4c3)cc1)CC2 [TQ, tariquidar, reference compound] | – | – | – | – | – | – | – | reached stable P-gp inhibition after 48 h that was sustained until 168 h | increased the expression of P-gp | increased the expression of P-gp | – | reached stable P-gp inhibition after 48 h that was sustained until 168 h | – | – | IC50 (P-gp [2]; TQ values in nM (footnote a)): 1.07 ± 0.174 nM; IC50 (P-gp [8]; TQ values in nM (footnote a)): 0.925 ± 0.155 nM |
| COc1cccc2c1C(=O)c1c(O)c3c(c(O)c1C2=O)C[C@@](O)(C(=O)CO)C[C@@H]3O[C@H]1C[C@H](N)[C@H](O)[C@H](C)O1 [DOX, doxorubicin, reference compound] | – | – | – | – | – | – | – | – | – | – | – | – | – | – | IC50 (NCI-H460/R [9]; Homo sapiens, MTT, 72 h, read-out: IC50 of DOX alone): 0.905 ± 0.0444 µM |
